Key:
[1] = molecular target: 168 GPCRs (Homo sapiens, UniProt P47211); experiment: β-arrestin GPCR screen (PathHunter/GPCRmax), antagonist mode; conditions: GPCR GALR1; Antagonist mode; 10 uM
[2] = molecular target: 168 GPCRs (Homo sapiens, UniProt Q99705); experiment: as above; conditions: GPCR MCHR1; Antagonist mode; 10 uM
[3] = molecular target: 168 GPCRs (Homo sapiens, UniProt Q01726); experiment: as above; conditions: GPCR MC1R; Antagonist mode; 10 uM
[4] = molecular target: 168 GPCRs (Homo sapiens, UniProt Q8TCW9); experiment: as above; conditions: PROKR1; Antagonist; 1 uM
[5] = molecular target: 168 GPCRs (Homo sapiens, UniProt Q15077); experiment: as above; conditions: P2RY6; Antagonist; 1 uM
[6] = molecular target: 168 GPCRs (Homo sapiens, UniProt P55085); experiment: as above; conditions: GPCR F2RL1; Antagonist mode; 10 uM
[7] = molecular target: 168 GPCRs (Homo sapiens, UniProt Q9NSD7); experiment: as above; conditions: GPCR RXFP3; Antagonist mode; 10 uM
[8] = molecular target: 168 GPCRs (Homo sapiens, UniProt Q9UBY5); experiment: as above; conditions: EDG7; Antagonist; 1 uM
[9] = molecular target: 168 GPCRs (Homo sapiens, UniProt P25090); experiment: as above; conditions: GPCR FPRL1; Antagonist mode; 10 uM
[10] = molecular target: 168 GPCRs (Homo sapiens, UniProt P35367); experiment: as above; conditions: GPCR HRH1; Antagonist mode; 10 uM
Sequence of 168 GPCRs (Homo sapiens, UniProt P35367) (P35367 whole entry): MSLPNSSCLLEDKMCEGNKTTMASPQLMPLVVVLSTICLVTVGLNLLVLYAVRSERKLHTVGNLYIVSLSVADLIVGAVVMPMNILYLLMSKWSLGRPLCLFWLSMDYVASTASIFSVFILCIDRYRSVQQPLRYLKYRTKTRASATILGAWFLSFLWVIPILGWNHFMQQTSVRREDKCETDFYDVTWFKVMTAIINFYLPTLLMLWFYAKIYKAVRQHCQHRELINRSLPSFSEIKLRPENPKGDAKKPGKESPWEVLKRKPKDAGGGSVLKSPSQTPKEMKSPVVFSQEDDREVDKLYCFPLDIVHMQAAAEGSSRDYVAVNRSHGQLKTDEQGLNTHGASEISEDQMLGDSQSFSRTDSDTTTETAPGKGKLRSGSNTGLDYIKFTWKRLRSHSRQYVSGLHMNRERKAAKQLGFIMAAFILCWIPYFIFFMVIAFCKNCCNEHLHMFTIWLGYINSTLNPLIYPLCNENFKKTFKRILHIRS

[11] = molecular target: 168 GPCRs (Homo sapiens, UniProt P29371); experiment: as above; conditions: GPCR TACR3; Antagonist mode; 10 uM
Sequence of 168 GPCRs (Homo sapiens, UniProt P29371) (P29371 whole entry): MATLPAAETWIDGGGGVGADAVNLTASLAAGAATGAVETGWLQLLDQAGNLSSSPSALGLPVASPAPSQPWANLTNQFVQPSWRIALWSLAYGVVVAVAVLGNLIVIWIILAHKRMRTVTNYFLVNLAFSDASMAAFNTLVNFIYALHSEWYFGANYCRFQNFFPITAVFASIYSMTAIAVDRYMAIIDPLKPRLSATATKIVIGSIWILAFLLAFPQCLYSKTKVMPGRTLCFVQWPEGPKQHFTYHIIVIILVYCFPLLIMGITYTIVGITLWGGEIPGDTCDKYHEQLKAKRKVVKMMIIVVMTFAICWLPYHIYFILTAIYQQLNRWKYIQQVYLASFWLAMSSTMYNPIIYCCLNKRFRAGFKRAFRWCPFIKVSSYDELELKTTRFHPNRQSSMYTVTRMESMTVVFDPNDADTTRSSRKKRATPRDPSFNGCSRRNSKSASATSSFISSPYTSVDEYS

[12] = molecular target: 168 GPCRs (Homo sapiens, UniProt P43115); experiment: as above
Sequence of 168 GPCRs (Homo sapiens, UniProt P43115) (P43115 whole entry): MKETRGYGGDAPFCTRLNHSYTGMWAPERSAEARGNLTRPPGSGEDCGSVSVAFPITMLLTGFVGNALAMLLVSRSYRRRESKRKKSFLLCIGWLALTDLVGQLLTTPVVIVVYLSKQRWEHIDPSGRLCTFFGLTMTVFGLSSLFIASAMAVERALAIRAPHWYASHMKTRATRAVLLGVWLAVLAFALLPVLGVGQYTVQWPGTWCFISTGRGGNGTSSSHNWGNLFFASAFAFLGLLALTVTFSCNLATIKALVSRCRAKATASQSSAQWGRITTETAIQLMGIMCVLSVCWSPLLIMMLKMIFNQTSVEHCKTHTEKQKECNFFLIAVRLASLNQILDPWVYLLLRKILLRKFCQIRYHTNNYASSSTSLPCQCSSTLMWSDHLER

[13] = molecular target: 168 GPCRs (Homo sapiens, UniProt P41587); experiment: as above; conditions: GPCR VIPR2; Antagonist mode; 10 uM
[14] = molecular target: 168 GPCRs (Homo sapiens, UniProt Q9HBW0); experiment: as above; conditions: EDG4; Antagonist; 1 uM
[15] = molecular target: T1, 168 GPCRs (Homo sapiens, UniProt P25024); experiment: β-arrestin GPCR screen (PathHunter/GPCRmax), agonist mode; format: cell-based; conditions: GPCR CXCR1; Agonist mode; 10 uM
T1 construct: host or cells: PathHunter cell lines
Experimental: (§1) For agonist determination, cells were incubated with sample to induce response. […] Vehicle concentration was 1%.

[16] = molecular target: T2, 168 GPCRs (Homo sapiens, UniProt P32238); experiment: as above; format: cell-based; conditions: CCKAR; Agonist; 10 uM
T2 construct: host or cells: PathHunter cell lines
T2 sequence (P32238 whole entry): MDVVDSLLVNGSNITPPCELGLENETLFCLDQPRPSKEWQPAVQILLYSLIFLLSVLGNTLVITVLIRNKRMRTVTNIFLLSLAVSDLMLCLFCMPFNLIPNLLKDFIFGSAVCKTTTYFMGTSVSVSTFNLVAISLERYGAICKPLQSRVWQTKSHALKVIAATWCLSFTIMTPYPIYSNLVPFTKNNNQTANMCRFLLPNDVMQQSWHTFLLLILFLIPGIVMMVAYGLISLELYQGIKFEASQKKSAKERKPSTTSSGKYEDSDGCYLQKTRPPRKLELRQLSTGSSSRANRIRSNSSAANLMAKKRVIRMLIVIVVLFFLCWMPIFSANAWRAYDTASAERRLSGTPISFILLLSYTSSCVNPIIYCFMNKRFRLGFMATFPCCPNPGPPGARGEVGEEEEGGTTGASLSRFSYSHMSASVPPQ
Experimental: as §1

[17] = molecular target: T3, 168 GPCRs (Homo sapiens, UniProt O95977); experiment: as above; format: cell-based; conditions: GPCR EDG6; Agonist mode; 10 uM
T3 construct: host or cells: PathHunter cell lines
T3 sequence (O95977 whole entry): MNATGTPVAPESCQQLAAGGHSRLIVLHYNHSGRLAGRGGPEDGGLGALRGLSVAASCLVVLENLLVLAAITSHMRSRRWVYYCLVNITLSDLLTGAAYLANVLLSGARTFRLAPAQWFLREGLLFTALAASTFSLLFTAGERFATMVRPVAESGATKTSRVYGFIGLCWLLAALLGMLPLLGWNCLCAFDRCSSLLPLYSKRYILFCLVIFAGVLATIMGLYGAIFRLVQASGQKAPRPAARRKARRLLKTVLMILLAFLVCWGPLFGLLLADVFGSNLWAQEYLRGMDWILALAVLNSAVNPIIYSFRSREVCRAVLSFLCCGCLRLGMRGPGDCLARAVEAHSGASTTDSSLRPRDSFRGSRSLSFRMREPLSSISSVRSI
Experimental: as §1

[18] = molecular target: T4, 168 GPCRs (Homo sapiens, UniProt P33032); experiment: as above; format: cell-based
T4 construct: host or cells: PathHunter cell lines
T4 sequence (P33032 whole entry): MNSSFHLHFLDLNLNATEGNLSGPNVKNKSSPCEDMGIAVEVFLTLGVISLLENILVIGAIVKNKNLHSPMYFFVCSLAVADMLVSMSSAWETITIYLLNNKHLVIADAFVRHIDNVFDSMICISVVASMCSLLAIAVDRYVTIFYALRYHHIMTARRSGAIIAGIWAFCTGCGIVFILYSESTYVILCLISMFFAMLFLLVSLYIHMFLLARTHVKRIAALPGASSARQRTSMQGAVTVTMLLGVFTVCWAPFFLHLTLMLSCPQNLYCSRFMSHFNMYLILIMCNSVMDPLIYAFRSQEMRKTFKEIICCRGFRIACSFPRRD
Experimental: as §1

[19] = molecular target: T5, 168 GPCRs (Homo sapiens, UniProt P11229); experiment: as above; format: cell-based; conditions: CHRM1, Agonist
T5 construct: host or cells: PathHunter cell lines
T5 sequence (P11229 whole entry): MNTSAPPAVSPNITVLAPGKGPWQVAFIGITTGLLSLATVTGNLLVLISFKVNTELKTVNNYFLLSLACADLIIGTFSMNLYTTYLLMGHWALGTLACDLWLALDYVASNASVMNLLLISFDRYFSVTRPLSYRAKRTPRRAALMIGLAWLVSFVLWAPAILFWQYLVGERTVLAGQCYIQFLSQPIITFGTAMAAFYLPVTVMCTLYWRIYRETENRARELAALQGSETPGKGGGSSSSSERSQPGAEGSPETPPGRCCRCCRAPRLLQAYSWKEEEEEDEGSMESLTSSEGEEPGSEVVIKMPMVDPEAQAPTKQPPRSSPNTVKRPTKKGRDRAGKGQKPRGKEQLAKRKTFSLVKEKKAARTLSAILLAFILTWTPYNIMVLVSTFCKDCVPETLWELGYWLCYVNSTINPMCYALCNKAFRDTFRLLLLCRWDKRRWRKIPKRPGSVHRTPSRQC
Experimental: as §1

[20] = molecular target: T6, 168 GPCRs (Homo sapiens, UniProt Q96P65); experiment: as above; format: cell-based; conditions: GPR103; Agonist; 1 uM
T6 construct: host or cells: PathHunter cell lines
T6 sequence (Q96P65 whole entry): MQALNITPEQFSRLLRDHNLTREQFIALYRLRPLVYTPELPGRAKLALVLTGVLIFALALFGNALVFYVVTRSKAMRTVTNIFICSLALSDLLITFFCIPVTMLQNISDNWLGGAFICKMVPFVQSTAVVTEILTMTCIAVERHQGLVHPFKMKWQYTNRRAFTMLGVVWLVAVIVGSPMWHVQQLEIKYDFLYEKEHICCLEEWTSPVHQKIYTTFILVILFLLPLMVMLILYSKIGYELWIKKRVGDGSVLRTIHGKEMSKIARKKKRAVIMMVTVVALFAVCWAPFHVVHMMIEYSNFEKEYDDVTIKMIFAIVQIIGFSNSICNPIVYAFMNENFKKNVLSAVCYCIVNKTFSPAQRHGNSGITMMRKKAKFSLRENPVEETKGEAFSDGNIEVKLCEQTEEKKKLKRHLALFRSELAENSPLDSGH
Experimental: as §1

[21] = molecular target: T7, 168 GPCRs (Homo sapiens, UniProt P46092); experiment: as above; format: cell-based; conditions: CCR10; Agonist; 10 uM
T7 construct: host or cells: PathHunter cell lines
Experimental: as §1

[22] = molecular target: T8, 168 GPCRs (Homo sapiens, UniProt P25025); experiment: as above; format: cell-based; conditions: GPCR CXCR2; Agonist mode; 10 uM
T8 construct: host or cells: PathHunter cell lines
T8 sequence (P25025 whole entry): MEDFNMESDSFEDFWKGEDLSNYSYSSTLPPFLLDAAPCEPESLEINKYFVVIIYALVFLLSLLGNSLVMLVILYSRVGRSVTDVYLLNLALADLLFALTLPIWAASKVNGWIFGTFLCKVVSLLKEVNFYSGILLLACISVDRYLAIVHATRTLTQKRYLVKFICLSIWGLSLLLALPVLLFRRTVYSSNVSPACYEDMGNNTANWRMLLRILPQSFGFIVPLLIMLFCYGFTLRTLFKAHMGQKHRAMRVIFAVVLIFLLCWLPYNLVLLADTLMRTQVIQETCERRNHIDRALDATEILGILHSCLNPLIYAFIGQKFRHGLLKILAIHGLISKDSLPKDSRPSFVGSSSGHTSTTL
Experimental: as §1

[23] = molecular target: SERT (Rattus norvegicus, UniProt P31652); experiment: [3H]5HT uptake saturation curves with or without methylone; format: biochemical
Sequence of SERT (P31652 whole entry): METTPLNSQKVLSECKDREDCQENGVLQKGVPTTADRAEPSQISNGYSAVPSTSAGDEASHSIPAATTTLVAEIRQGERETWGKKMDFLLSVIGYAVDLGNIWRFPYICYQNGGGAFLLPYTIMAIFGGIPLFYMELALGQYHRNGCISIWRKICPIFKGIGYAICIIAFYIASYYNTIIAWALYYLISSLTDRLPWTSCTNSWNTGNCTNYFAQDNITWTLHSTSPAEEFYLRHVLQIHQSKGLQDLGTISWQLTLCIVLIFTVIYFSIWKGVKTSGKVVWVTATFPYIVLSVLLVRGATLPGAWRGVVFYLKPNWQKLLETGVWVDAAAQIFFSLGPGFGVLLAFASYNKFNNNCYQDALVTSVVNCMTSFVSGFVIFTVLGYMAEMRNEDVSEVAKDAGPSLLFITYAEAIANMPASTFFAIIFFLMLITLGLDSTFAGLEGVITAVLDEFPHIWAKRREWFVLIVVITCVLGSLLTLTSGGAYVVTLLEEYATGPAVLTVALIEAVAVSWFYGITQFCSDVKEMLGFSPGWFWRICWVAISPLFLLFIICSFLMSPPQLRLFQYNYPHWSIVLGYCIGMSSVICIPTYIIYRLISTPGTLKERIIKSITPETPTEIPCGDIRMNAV
Source text: If high concentrations of [^3H] […] Three hot saturation curves were run with the [^3H]

[24] = test system: myelin basic protein (MBP) in the amygdala; experiment: Immunohistochemistry of myelin basic protein; format: in vivo, rat; conditions: 10 mg/kg IP, single dose, 24 h
Experimental: Immunohistochemistry: The in-life portion of the study was conducted at WuXi Apptec (Cranbury, NJ). Sectioning and staining of brains took place at Neuroscience Associates (NSA, Knoxville, TN). […] Brains were post-fixed in PFA before shipment to NSA for processing and staining. Hemisected brains were mounted, sectioned and stained using standard protocols with myelin-basic protein primary antibody (MBP SMI-99, 1:5000, Biolegend, San Diego, CA) and anti-mouse biotinylated secondary antibody (BA-2001, Vector Laboratories, Newark, CA). Slides were imaged using a Huron Digital Pathology TissueScope LE120 whole slide scanning system. 20× objective was used with a 0.4 μm/pixel resolution.

Sequence of 168 GPCRs (Homo sapiens, UniProt Q01726) (Q01726 whole entry): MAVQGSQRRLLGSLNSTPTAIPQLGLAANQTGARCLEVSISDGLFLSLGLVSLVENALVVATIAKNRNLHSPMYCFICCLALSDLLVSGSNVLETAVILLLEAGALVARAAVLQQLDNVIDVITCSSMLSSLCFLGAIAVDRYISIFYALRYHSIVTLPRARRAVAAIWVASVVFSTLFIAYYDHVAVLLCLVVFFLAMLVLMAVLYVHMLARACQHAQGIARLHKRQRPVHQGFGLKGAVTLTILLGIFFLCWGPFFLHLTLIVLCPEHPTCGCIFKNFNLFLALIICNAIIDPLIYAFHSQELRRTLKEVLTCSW

CNC(C)C(=O)c1ccc2c(c1)OCO2 (stereo not shown) [methylone, 3,4-methylenedioxy-N-methylcathinone]
activity at 10 µM [1]: 8.8% | activity at 10 µM [2]: -38.3% | activity at 10 µM [3]: ~15% | activity at 1 µM [4]: 6.7% | activity at 1 µM [5]: ~8% | activity at 10 µM [6]: -16.2% | activity at 10 µM [7]: ~32% | activity at 1 µM [8]: ~19% | activity at 10 µM [9]: ~3% | activity at 10 µM [10]: -2.2% | activity at 10 µM [11]: ~-14% | activity at 10 µM ([12]; GPCR PTGER3, Antagonist mode, 10 uM): -5.7% | activity at 1 µM ([12]; PTGER3, Antagonist, 1 uM): 8.2% | activity at 10 µM [13]: ~-2% | activity at 1 µM [14]: ~-10% | activity at 10 µM [15]: -0.1% | activity at 10 µM [16]: -0.3% | activity at 10 µM [17]: -0.3% | activity at 10 µM ([18]; GPCR MC5R, Agonist mode, 10 uM): -8.9% | activity at 1 µM ([18]; MC5R, Agonist, 1 uM): ~-7% | activity at 1 µM ([19]; 1 uM): -3.1% | activity at 10 µM ([19]; 10 uM): -8.5% | activity at 1 µM [20]: ~0% | activity at 10 µM [21]: ~-1% | activity at 10 µM [22]: -2.6% | effect on Bmax of [3H]5HT uptake [23]: no decrease in Bmax | type of interaction at the SERT ([23]; two concentrations of methylone): competitive | MBP level in basolateral and central nuclei of the amygdala vs vehicle [24]: significant reduction in MBP

Reference: patent US20250332139A1, “PS[…] AND THEIR USE FOR TREATING […] AND NE[…] DISORDERS” (Transcend Therapeutics, Inc., priority 2021, published 2025)
